# According to patent US4645773A, “β-carboline-3-oxadiazolyl derivatives, and their use as psychotropic agents” (Schering Aktiengesellschaft, priority 1984, dated 1987):
# How the values were obtained:
# benzodiazepine receptor [1] = assay: in vivo inhibition of 3H-flunitrazepam binding to benzodiazepine receptors in mouse forebrain; conditions: mice, usually subcutaneous, 3H-flunitrazepam i.v. 15 min later, killed after further 20 min
# Procedure: The ED50 value represents the dose (mg/kg) of a test substance which causes the specific binding of flunitrazepam to benzodiazepine receptors in a living brain to be reduced to 50% of the control value. Such an in vivo test is carried out as follows:
# Groups of mice are injected with the test substance at different doses and usually subcutaneously. 15 minutes later ^3 H-flunitrazepam is administered intravenously to the mice and after further 20 minutes the mice are killed. Their forebrain membranes are removed and the radioactivity of these forebrain membranes is measured by scintillation counting. The ED50 value is determined from dose-response curves.
# benzodiazepine receptor [2] = assay: displacement of 3H-flunitrazepam specific binding to benzodiazepine receptors (in vitro), rat forebrain membranes; conditions: rat forebrain suspension, 3H-flunitrazepam 1.0 nM, 0° C., 40-60 min, pH 7.1
# Procedure: These sites are called benzodiazepine receptors. The displacement activity of the compounds of the invention has been determined by determining the IC50 value and the ED50 value.
# The IC50 value represents the concentration which causes a displacement of 50% of the specific binding of ^3 H-flunitrazepam (1.0 nM, 0° C.) in samples comprising a total volume of 0.55 ml of a suspension of brain membrane, e.g from rats.
# The displacement test is performed as follows:
# 0.50 ml of a suspension of non-treated rat forebrain in 25 mM KH2 PO4, pH=7.1 (5-10 mg tissue/sample) is incubated for 40-60 minutes at 0° C. together with ^3 H-diazepam (specific activity 87 Ci/mmol, 1.0 nM) or ^3 H-flunitrazepam (specific activity 87 Ci/mmol, 1.0 nM). After incubation, the suspension is filtered through "Whatman GF/C" glass fiber filters, the residue washed twice with cold buffer solution and the radioactivity measured by scintillation counting.
# The test is repeated except that prior to the addition of the radioactive labelled benzodiazepine, a given amount or an excessive amount of the compound, the displacement capability of which is to be determined, is added. Based on the data obtained the IC50 value can be calculated.
SMILES,"Affinity for the benzodiazepine receptor, inhibition of 3H-flunitrazepam binding, IC50 (in vitro) (benzodiazepine receptor [2]) [ng/mL]","inhibition of 3H-flunitrazepam binding, ED50 (in vivo) (benzodiazepine receptor [1]) [mg/kg]"
CCc1noc(-c2ncc3[nH]c4cccc(OC(C)C)c4c3c2C)n1,0.5,0.4
CCOCc1cccc2[nH]c3cnc(-c4nc(CC)no4)c(C)c3c12,0.26,0.4
CCc1noc(-c2ncc3[nH]c4cccc(OC5C=CCCC5)c4c3c2COC)n1 (stereo not drawn),0.4,0.75
"CCc1noc(-c2cc3c(cn2)[nH]c2ccc(C#CCN(C)C)cc23)n1 [3-[5-(3-ethyl-1,2,4-oxadiazole)-yl]-6-(3-dimethylaminopropargyl)-β-carboline]",0.4,7.9

# Further lines, with some results ahead:
"Affinity for the benzodiazepine receptor, inhibition of 3H-flunitrazepam binding, IC50 (in vitro) (benzodiazepine receptor [2]) [ng/mL]",SMILES,"inhibition of 3H-flunitrazepam binding, ED50 (in vivo) (benzodiazepine receptor [1]) [mg/kg]"
0.5,CCc1nc(-c2ncc3[nH]c4cccc(OCc5ccccc5)c4c3c2COC)no1,1.0
0.2,CCc1noc(-c2ncc3[nH]c4cccc(OC(C)C)c4c3c2COC)n1,0.2
0.3,"CCCOc1cccc2[nH]c3cnc(-c4nc(CC)no4)c(COC)c3c12 [3-[5-(3-ethyl-1,2,4-oxadiazole)-yl]-4-methoxymethyl-5-propoxy-β-carboline]",1.4
0.4,CCc1noc(-c2ncc3[nH]c4cccc(OC5CCC5)c4c3c2COC)n1,0.6
0.4,COCc1c(-c2nc(C)no2)ncc2[nH]c3cccc(OCc4ccccc4)c3c12,0.9
